Paper PMC1933452, “Molecular Basis of Resistance to Muramidase and Cationic Antimicrobial Peptide Activity of Lysozyme in Staphylococci” (PLoS Pathogens, 2007)
Values joined by “and” are separate entries in the source; they are usually repeats but may differ in a detail not shown here. Identical values can stand only once. Like-named read-outs stand apart in the source and are kept apart here. Where a SMILES comes first, the peptide text is derived from it. Bridges are numbered along the chain shown (N, C = ends). Where no end group is shown, it is not given here. [ ]: non-standard residue; d: D form. The star is where a group is joined. X1 = CC[C@H](C)CCCCC(=O)*; Dab = NCC[C@H](N)C(=O)O

Columns and labels:
SA113 = format: cell-based, Staphylococcus aureus; conditions: for MIC: SA113, serial dilution, BM without glucose with 0.5% xylose, 37 °C, 20–24 h, mean of three to five independent experiments
Protocol: (§1) The overnight cultures were diluted in BM with 0.5% xylose to a concentration of 0.5 × 10^6 CFU per ml and aliquoted in 0.5-ml samples, and cationic agents in different concentrations were added.

graRS::erm = experiment: MIC assay, graRS mutant; format: cell-based, Staphylococcus aureus; conditions: for Susceptibility of graRS mutant relative to WT: from MIC values; for MIC: graRS::erm, serial dilution, BM without glucose with 0.5% xylose, 37 °C, 20–24 h, mean of three to five independent experiments
Protocol: as §1

oatA::kan = experiment: MIC assay, oatA mutant; format: cell-based, Staphylococcus aureus; conditions: serial dilution, BM without glucose with 0.5% xylose, 37 °C, 20–24 h, mean of three to five independent experiments
Protocol: as §1

oatA::kan/graRS::erm = experiment: MIC assay, oatA/graRS double mutant; format: cell-based, Staphylococcus aureus; conditions: for MIC: oatA::kan/graRS::erm, serial dilution, BM without glucose with 0.5% xylose, 37 °C, 20–24 h, mean of three to five independent experiments
Protocol: as §1

dltA::spc = experiment: MIC assay, dltA mutant; format: cell-based, Staphylococcus aureus; conditions: for MIC: dltA::spc, serial dilution, BM without glucose with 0.5% xylose, 37 °C, 20–24 h, mean of three to five independent experiments
Protocol: as §1

oatA::kan/dltA::spc = experiment: MIC assay, oatA/dltA double mutant; format: cell-based, Staphylococcus aureus; conditions: for MIC: oatA::kan/dltA::spc, serial dilution, BM without glucose with 0.5% xylose, 37 °C, 20–24 h, mean of three to five independent experiments
Protocol: as §1

graRS::erm (pTXgraRS) = experiment: MIC assay, complemented graRS mutant; format: cell-based, Staphylococcus aureus; conditions: for MIC: graRS::erm (pTXgraRS), serial dilution, BM without glucose with 0.5% xylose as inductor, 37 °C, 20–24 h, mean of three to five independent experiments
Protocol: as §1

SA113 (pTXgraRS) = experiment: MIC assay, WT overexpressing graRS; format: cell-based, Staphylococcus aureus; conditions: for MIC: SA113 (pTXgraRS), serial dilution, BM without glucose with 0.5% xylose as inductor, 37 °C, 20–24 h, mean of three to five independent experiments
Protocol: as §1

WT SA113 = experiment: Effects of cationic agents on exponential growth, WT; format: cell-based, Staphylococcus aureus; conditions: WT SA113, BM 37 °C, agent added at OD578nm 1.0; Lys or heat-inactivated Lys 300 μg/ml, LP9 200 μg/ml, PMB 20 μg/ml, Gdm 8 μg/ml
Protocol: (§2) Overnight cultures were diluted to an OD578nm of 0.1 in 50 ml of BM and the cultures were incubated with shaking at 37 °C. OD was determined every hour. Ten milliliters of each culture were transferred into a new 100-ml flask when the cultures reached an OD578nm of nearly 1.0. Then, cationic agents, such as hen egg-white lysozyme and human lysozyme (Sigma-Aldrich, http://www.sigmaaldrich.com/), LP9 (a lysozyme-derived 9-aa peptide, 107R-A-W-V-A-W-R-N-R115–NH2) (EMC, http://www.microcollections.de/), polymyxin B (Sigma-Aldrich), gallidermin (Genmedics, http://www.genmedics.com/), or mutanolysin (Sigma), were added. Lysozyme was inactivated by heating for 1 h at 100 °C and placed on ice. The OD578nm of all cultures was measured hourly up to 7–8 h and after 24 h.

graRS mutant = experiment: Effects of cationic agents on exponential growth, graRS mutant; format: cell-based, Staphylococcus aureus; conditions: PMB 20 μg/ml; for Susceptibility of growing culture (OD578nm) / Resumption of growth in the presence of the CAMP: graRS mutant, Gdm 8 μg/ml; for Susceptibility of growing culture (OD578nm): BM 37 °C, agent added at OD578nm 1.0, Lys or heat-inactivated Lys 300 μg/ml, LP9 200 μg/ml; for Resumption of growth in the presence of the CAMP: up to 24 h
Protocol: as §2

dltA mutant = experiment: Effects of cationic agents on exponential growth, dltA mutant; format: cell-based, Staphylococcus aureus; conditions: LP9 200 μg/ml, PMB 20 μg/ml, Gdm 8 μg/ml; for Susceptibility of growing culture (OD578nm): BM 37 °C, agent added at OD578nm 1.0, Lys or heat-inactivated Lys 300 μg/ml; for Resumption of growth in the presence of the CAMP: up to 24 h
Protocol: as §2

oatA mutant = experiment: Effects of cationic agents on exponential growth, oatA mutant; format: cell-based, Staphylococcus aureus; conditions: BM 37 °C, agent added at OD578nm 1.0, Lys or heat-inactivated Lys 300 μg/ml, LP9 200 μg/ml
Protocol: as §2

oatA/graRS mutant = experiment: Effects of cationic agents on exponential growth, oatA/graRS mutant; format: cell-based, Staphylococcus aureus; conditions: BM 37 °C, agent added at OD578nm 1.0, Lys 50 μg/ml, heat-inactivated Lys 300 μg/ml, LP9 200 μg/ml
Protocol: as §2

[1] = test system: PG isolated from oatA mutant; experiment: Turbidometric assay of PG, oatA mutant; format: biochemical, Staphylococcus aureus; conditions: PG of oatA mutant 0.5 mg/ml, 300 μg/ml, 80 mM PBS pH 6.4, 4 h
Protocol: (§3) One liter of BM was inoculated with an overnight culture of the WT SA113 or the mutants. Strains were grown for 12 h with shaking at 37 °C. Cells were centrifuged, washed two times with cold 0.9% NaCl, diluted in 0.9% NaCl, and boiled for 20 min. After the cells were chilled on ice, they were again centrifuged and washed twice with 0.9% NaCl. The cells were disrupted in a mechanical grinding device using glass beads ∅150–212 μm (Sigma-Aldrich) at 4 °C, centrifuged and washed two times with cold H2Obidest, boiled for 30 min in 2% SDS to remove noncovalently bound proteins, and washed four times with H2Obidest. The cell wall fragments were diluted in 0.1 M Tris/HCl (pH 6.8) and incubated with 0.5 mg/ml trypsin for 16 h at 37 °C to degrade cell-bound proteins. After centrifugation and washing with water, the PG was lyophilized.
(§4) For analyzing the susceptibility of PG to lysozyme, we used a modified method turbidometric assay as described by Clarke. The PG of the WT SA113 and the mutants were sonicated and diluted to 0.5 mg in 1 ml of 80 mM PBS (pH 6.4). After the addition of 300 μg lysozyme per ml, the decrease in optical density was monitored at the beginning (0 h) and after 4 h at OD660nm and calculated as percentages.

oatA/dltA mutant = experiment: Effects of cationic agents on exponential growth, oatA/dltA mutant; format: cell-based, Staphylococcus aureus; conditions: BM 37 °C, agent added at OD578nm 1.0, Lys 20 μg/ml, LP9 200 μg/ml
Protocol: as §2

[2] = test system: PG isolated from graRS mutant; experiment: Turbidometric assay of PG, graRS mutant; format: biochemical, Staphylococcus aureus; conditions: PG of graRS mutant 0.5 mg/ml, 300 μg lysozyme per ml, 80 mM PBS pH 6.4, 4 h
Protocol: as §3, §4

[3] = test system: PG isolated from oatA/graRS double mutant; experiment: Turbidometric assay of PG, oatA/graRS mutant; format: biochemical, Staphylococcus aureus; conditions: PG of oatA/graRS double mutant 0.5 mg/ml, 300 μg lysozyme per ml, 80 mM PBS pH 6.4, 4 h
Protocol: as §3, §4

[4] = test system: PG isolated from dltA mutant; experiment: Turbidometric assay of PG, dltA mutant; format: biochemical, Staphylococcus aureus; conditions: PG of dltA mutant 0.5 mg/ml, 300 μg lysozyme per ml, 80 mM PBS pH 6.4, 4 h
Protocol: as §3, §4

Compound	MIC (SA113; 0.5 × 10^6 CFU per ml)	MIC (SA113) [µM]	Susceptibility of graRS mutant relative to WT (graRS::erm) [fold]	MIC (graRS::erm)	MIC (oatA::kan)	MIC (oatA::kan/graRS::erm)	MIC (dltA::spc)	MIC (oatA::kan/dltA::spc)	MIC (graRS::erm (pTXgraRS))	MIC (SA113 (pTXgraRS))	Susceptibility of growing culture (OD578nm) (WT SA113)	Susceptibility of growing culture (OD578nm) (graRS mutant)	Resumption of growth in the presence of the CAMP (graRS mutant)	Susceptibility of growing culture (OD578nm) (dltA mutant)	Resumption of growth in the presence of the CAMP (dltA mutant)	Susceptibility of growing culture (OD578nm) (oatA mutant)	Susceptibility of growing culture (OD578nm) (oatA/graRS mutant)	Hydrolysis of isolated PG (decrease in OD660nm) [1]	further results
CC[C@H](C)CCCCC(=O)N[C@@H](CCN)C(=O)N[C@H](C(=O)N[C@@H](CCN)C(=O)N[C@H]1CCNC(=O)[C@H]([C@@H](C)O)NC(=O)[C@H](CCN)NC(=O)[C@H](CCN)NC(=O)[C@H](CC(C)C)NC(=O)[C@@H](Cc2ccccc2)NC(=O)[C@H](CCN)NC1=O)[C@@H](C)O [Polymyxin B, polymyxin B] (X1-[Dab]T[Dab][Dab][Dab][dF]L[Dab][Dab]T; lactam 4-C (inferred); N-terminus assumed)	350 µg/mL	252.5	17	20 μg/ml and 14.4 μM	350 μg/ml and 252.5 μM	25 μg/ml and 18 μM	10 μg/ml and 7.2 μM	10 μg/ml and 7.2 μM	>800 µg/mL	>500 µg/mL	much less affected	immediate growth arrest	started to grow after some time	more susceptible	unable to resume growth				Increase in resistance by overexpression of graRS (pTXgraRS) in the graRS mutant (graRS::erm (pTXgraRS); from MIC values): approximately 2 fold; Increase in resistance by overexpression of graRS (pTXgraRS) in the WT (SA113 (pTXgraRS); from MIC values): approximately 2 fold; Growth of subculture challenged again (graRS mutant; new culture inoculated from 24-h graRS culture treated with polymyxin B): no growth retardation
Heat-inactivated lysozyme: Catalytic inactive lysozyme, inactivated by heating for 1 h at 100 °C											completely insensitive	does not affect		inhibited		no activity	able to inhibit the growth	no activity	
Lysozyme	>50,000 μg/ml			>50,000 μg/ml	10,000 μg/ml and 694 μM	600 μg/ml and 41.6 μM	2,000 μg/ml and 138.8 μM	30 μg/ml and 2.08 μM	>50,000 μg/ml	>50,000 μg/ml	completely lysozyme resistant	only marginally affected		more sensitive		only marginally affected	highly susceptible	sensitive to the muramidase activity	Resistance at highest concentration (SA113; WT, at a concentration of 50 mg/ml): completely resistant; Resistance at highest concentration (graRS::erm; graRS mutant, at a concentration of 50 mg/ml): completely resistant; Sensitivity of oatA/graRS double mutant relative to oatA mutant (oatA::kan/graRS::erm; from MIC values): ~17 fold; Sensitivity of dltA single mutant relative to WT (dltA::spc; from MIC values): over 25 fold; Sensitivity of dltA single mutant relative to oatA single mutant (dltA::spc; from MIC values): 5 fold; Sensitivity of oatA/dltA double mutant relative to oatA single mutant (oatA::kan/dltA::spc; from MIC values): > 333 fold and 333 fold; Sensitivity of oatA/dltA double mutant relative to oatA/graRS double mutant (oatA::kan/dltA::spc; from MIC values): 20 fold; Susceptibility of growing culture (OD578nm) (oatA/dltA mutant): stays lysozyme sensitive even after 24 h; Hydrolysis of isolated PG (decrease in OD660nm) [2]: completely resistant; Hydrolysis of isolated PG (decrease in OD660nm) [3]: hydrolysed; Hydrolysis of isolated PG (decrease in OD660nm) [4]: not hydrolyzed
gallidermin (IASKFLCTPGCAKTGSFNSYCC; cysteine pairing not given here; also: lantibiotic; UniProt P21838 31-52, looked up) [lantibiotic, CAMP (Genmedics)]	9 µg/mL	4.1	4	2.5 μg/ml and 1.14 μM	9 μg/ml and 4.1 μM	3 μg/ml and 1.36 μM	1.2 μg/ml and 0.55 μM	1.2 μg/ml and 0.55 μM	9 μg/ml and 4.1 μM	9 μg/ml and 4.1 μM	inhibited the WT	immediate growth arrest	started to grow after some time	more susceptible	unable to resume growth				
